Laboratory results taken from patent publication US9382222B2, “Benzyl sulfonamide derivatives as RORc modulators” (Genentech, Inc., priority 2012, dated 2016).

Target: T1, RORc ligand binding domain (Homo sapiens, UniProt P51449)
T1 construct: host or cells: E. coli
T1 sequence (P51449 269-508 limits assumed): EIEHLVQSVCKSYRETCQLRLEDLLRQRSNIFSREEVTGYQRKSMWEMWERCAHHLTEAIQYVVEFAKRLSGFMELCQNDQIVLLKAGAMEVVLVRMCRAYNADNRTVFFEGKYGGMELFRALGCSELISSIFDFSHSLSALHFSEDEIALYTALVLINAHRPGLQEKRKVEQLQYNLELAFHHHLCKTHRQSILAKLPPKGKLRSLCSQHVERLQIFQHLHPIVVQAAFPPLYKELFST
Test: In Vitro RORc Ligand Binding Assay
Details: displacement of 25-[3H]hydroxycholesterol (6 nM), 0.6 ug/mL RORc receptor, 3 h at 25° C.
Protocol: In Vitro RORc Ligand Binding Assay This assay was used to determine a compound's potency in inhibiting activity of RORc by determining, Kiapp, IC50, or percent inhibition values. […] On day of the assay, 100 uL of 0.05% CHAPS (in deionized H2O) was added to all wells of the GFB Unifilter plate and allowed soak for 1 h. A wash buffer of 50 mM HEPES (pH 7.4), 150 mM NaCl, and 5 mM MgCl2 was prepared to wash the filter plate. To prepare an assay buffer, BSA was added to the wash buffer to reach 0.01% and DTT was added to reach 1 mM. […] The 20× compound stocks were diluted in DMSO with Assay Buffer 4-fold to reach 5× the final test concentration in 25% DMSO (10 uL compound+30 uL Assay Buffer). Solutions were mixed by aspiration several times with a pipette set on 50 uL volume. For the assay, 10 uL of 5× compound stock solutions in 25% DMSO were added to the assay plate in duplicate. For two point screening, 10 mM stock compound solutions were diluted in DMSO to obtain 200 uM (20× the high test concentration) and then diluted 10-fold further to reach 20 uM (20× the low test concentration). The 20× stocks were diluted 4-fold with Assay Buffer (10 uL compound+30 uL Assay Buffer) to reach 5× the test concentrations (50 uM and 5 uM) and 10 uL were added to two assay plates for the duplicate wells. […] Add 20 uL to all wells to reach 6 nM final concentration in the assay. […] Stock receptor solution was diluted in assay buffer to obtain 1.5 ug/mL in Assay Buffer. 20 uL was added to all wells. For No Receptor samples, 20 uL Assay Buffer was substituted for receptor solution. […] Following addition to the wells, the plates were incubated 3 h at 25° C. Using a Packard Filtermate Harvester, the filter plate were washed 4 times following transfer of the incubated samples. Plates were dry-filtered completely (2 h at 50° C. or overnight at room temperature). 50 uL Microscint 0 was added to all wells and read on Topcount protocol Inverted. […] For NSB wells, 1 uM 25-hydroxycholesterol was also present.

SMILES	IC50 [nM]
CC(C)CN(c1cccc(Cl)c1)S(=O)(=O)c1ccc(OC2CCN(S(=O)(=O)N(C)C)CC2)cc1 [Compound 39, 4-{4-[(3-Chloro-phenyl)-isobutyl-sulfamoyl]-phenoxy}-piperidine-1-sulfonic acid dimethylamide]	191
CC(=O)N1CCN(c2ccc(S(=O)(=O)N(c3cccc(Cl)c3)C(C)C)cc2)CC1 [Compound 28, 4-(4-Acetyl-piperazin-1-yl)-N-(3-chloro-phenyl)-N-isopropyl-benzenesulfonamide]	1600
CC(C)CN(c1cccc(Cl)c1)S(=O)(=O)c1ccc(O[C@@H]2CCCN(S(C)(=O)=O)C2)cc1 [Compound 42, N-(3-Chloro-phenyl)-N-isobutyl-4-((R)-1-methanesulfonyl-piperidin-3-yloxy)-benzenesulfonamide]	164
CC(C)CN(Cc1ccc(OC(F)F)cc1)S(=O)(=O)c1ccc(N2CCN(S(C)(=O)=O)CC2)cc1 [Compound 72, N-(4-Difluoromethoxy-benzyl)-N-isobutyl-4-(4-methanesulfonyl-piperazin-1-yl)-benzenesulfonamide]	83
CC(C)CN([C@@H](C)c1ccccc1)S(=O)(=O)c1ccc(N2CCN(S(C)(=O)=O)CC2)cc1 [Compound 63, N-Isobutyl-4-(4-methanesulfonyl-piperazin-1-yl)-N-((S)-1-phenyl-ethyl)-benzenesulfonamide]	39
C=C(c1ccccc1)N(CC(C)C)S(=O)(=O)c1ccc(N2CCN(S(C)(=O)=O)CC2)cc1 [Compound 78, N-Isobutyl-4-(4-methanesulfonyl-piperazin-1-yl)-N-(1-phenyl-vinyl)-benzenesulfonamide]	23
CC(=O)N1CCN(c2ccc(S(=O)(=O)N(Cc3cccc(C(F)(F)F)c3)CC(C)C)cc2)CC1 [Compound 58, 4-(4-Acetyl-piperazin-1-yl)-N-isobutyl-N-(3-trifluoromethyl-benzyl)-benzenesulfonamide]	244
CN(C)S(=O)(=O)N1CCN(c2ccc(S(=O)(=O)N(Cc3ccccc3C(F)(F)F)C(C)(C)C)cc2)CC1 [Compound 82, 4-{4-[tert-Butyl-(2-trifluoromethyl-benzyl)-sulfamoyl]-phenyl}-piperazine-1-sulfonic acid dimethylamide]	51
CC(=O)N1CCN(c2ccc(S(=O)(=O)N(Cc3ccccc3C(F)(F)F)C3CCC3)cc2)CC1 [Compound 76, 4-(4-Acetyl-piperazin-1-yl)-N-cyclobutyl-N-(2-trifluoromethyl-benzyl)-benzenesulfonamide]	31
CC(C)CN(c1cccc(Cl)c1)S(=O)(=O)c1ccc(OC2CCN(S(C)(=O)=O)CC2)cc1 [Compound 34, N-(3-Chloro-phenyl)-N-isobutyl-4-(1-methanesulfonyl-piperidin-4-yloxy)-benzenesulfonamide]	8
CC(C)CN(c1ccccc1Cl)S(=O)(=O)c1ccc(N2CCC(NS(C)(=O)=O)CC2)cc1 [Compound 24, N-(2-Chloro-phenyl)-N-isobutyl-4-(4-methanesulfonylamino-piperidin-1-yl)-benzenesulfonamide]	128
CC(=O)N1CCN(c2ccc(S(=O)(=O)N(Cc3ccccc3C(F)(F)F)C(C)(C)C)cc2)CC1 [Compound 81, 4-(4-Acetyl-piperazin-1-yl)-N-tert-butyl-N-(2-trifluoromethyl-benzyl)-benzenesulfonamide]	110
CC(C)CN(c1cccc(Cl)c1)S(=O)(=O)c1ccc(N2CCN(S(C)(=O)=O)CC2)c(F)c1 [Compound 29, N-(3-Chloro-phenyl)-3-fluoro-N-isobutyl-4-(4-methanesulfonyl-piperazin-1-yl)-benzenesulfonamide]	36
CC(C)CN([C@H](C)c1ccccc1)S(=O)(=O)c1ccc(N2CCN(S(C)(=O)=O)CC2)cc1 [Compound 62, N-Isobutyl-4-(4-methanesulfonyl-piperazin-1-yl)-N-((R)-1-phenyl-ethyl)-benzenesulfonamide]	483
CC(C)CN(Cc1ccc(Cl)cc1)S(=O)(=O)c1ccc(NC2CCN(S(C)(=O)=O)CC2)cc1 [Compound 91, N-(4-Chloro-benzyl)-N-isobutyl-4-(1-methanesulfonyl-piperidin-4-ylamino)-benzenesulfonamide]	10
CC(=O)N1CCN(c2ccc(S(=O)(=O)N(CC(C)C)c3cccc(Cl)c3)cc2)CC1 [Compound 17, 4-(4-Acetyl-piperazin-1-yl)-N-(3-chloro-phenyl)-N-isobutyl-benzenesulfonamide]	138
CC(C)CN(c1cccc(Cl)c1)S(=O)(=O)c1ccc(OC2CCN(C(N)=O)CC2)cc1 [Compound 35, 4-{4-[(3-Chloro-phenyl)-isobutyl-sulfamoyl]-phenoxy}-piperidine-1-carboxylic acid amide]	108
CC(=O)N1CCC(Oc2ccc(S(=O)(=O)N(CC(C)C)c3cccc(Cl)c3)cc2)CC1 [Compound 33, 4-(1-Acetyl-piperidin-4-yloxy)-N-(3-chloro-phenyl)-N-isobutyl-benzenesulfonamide]	198
CC(=O)N1CCN(c2ccc(S(=O)(=O)N(Cc3ccccc3C(F)(F)F)CC(C)(C)C)cc2)CC1 [Compound 88, 4-(4-Acetyl-piperazin-1-yl)-N-(2,2-dimethyl-propyl)-N-(2-trifluoromethyl-benzyl)-benzenesulfonamide]	39
CC(=O)N1CCN(c2ccc(S(=O)(=O)N(Cc3ccccc3C(F)(F)F)CC(F)(F)F)cc2)CC1 [Compound 80, 4-(4-Acetyl-piperazin-1-yl)-N-(2,2,2-trifluoro-ethyl)-N-(2-trifluoromethyl-benzyl)-benzenesulfonamide]	87
CN(C)S(=O)(=O)N1CCN(c2ccc(S(=O)(=O)N(Cc3ccccc3C(F)(F)F)C3CCC3)cc2)CC1 [Compound 77, 4-{4-[Cyclobutyl-(2-trifluoromethyl-benzyl)-sulfamoyl]-phenyl}-piperazine-1-sulfonic acid dimethylamide]	25
CC(=O)N1CCN(c2ccc(S(=O)(=O)N(c3cccc(Cl)c3)C3CCC3)cc2)CC1 [Compound 30, 4-(4-Acetyl-piperazin-1-yl)-N-(3-chloro-phenyl)-N-cyclobutyl-benzenesulfonamide]	149
CC(C)CN(Cc1ccc(F)cc1)S(=O)(=O)c1ccc(NC2CCN(S(C)(=O)=O)CC2)cc1 [Compound 2, N-(4-Fluoro-benzyl)-N-isobutyl-4-(1-methanesulfonyl-piperidin-4-ylamino)-benzenesulfonamide]	8
CC(=O)N1CCC(Nc2ccc(S(=O)(=O)N(CC(C)C)c3cccc(Cl)c3)cc2)CC1 [Compound 31, 4-(1-Acetyl-piperidin-4-ylamino)-N-(3-chloro-phenyl)-N-isobutyl-benzenesulfonamide]	258
CC(=O)N1CCN(c2ccc(S(=O)(=O)N(CC(F)(F)F)c3cccc(Cl)c3)cc2)CC1 [Compound 37, 4-(4-Acetyl-piperazin-1-yl)-N-(3-chloro-phenyl)-N-(2,2,2-trifluoro-ethyl)-benzenesulfonamide]	305
CC(C)CN(Cc1ccccc1C(F)(F)F)S(=O)(=O)c1ccc(NC2CCN(S(C)(=O)=O)CC2)cc1 [Compound 84, N-Isobutyl-4-(1-methanesulfonyl-piperidin-4-ylamino)-N-(2-trifluoromethyl-benzyl)-benzenesulfonamide]	6
